In patent US7786298B2, “Compounds and methods for nucleic acid mismatch detection” (California Institute of Technology, priority 2006, dated 2010):

System: oligonucleotides containing a central CC mismatch
Assay: Photocleavage testing, denaturing PAGE of 5′-32P-end-labeled oligonucleotides
Type: biochemical
Conditions: duplex 1 μM, Rh 1 μM, 20 mM NaCl, 10 mM NaPi, pH 7.1, 30 min, irradiation 5 min (325-450 nm); fully matched and mismatched oligonucleotides
Procedure: Compounds PEG-RhOG and [Rh(chrysi)(phen)(^PEGbipy)]^3+(i.e., compound A and intermediate 2, respectively, as described above) were used for photocleavage testing. Denaturing PAGE experiments with 5′-32P-end-labeled oligonucleotides containing or lacking a central CC mismatch were employed to test specific site targeting. Duplex DNA (1 μM) was incubated with variable concentrations of compound A (100 nm to 5 μM) for 30 min and then irradiated for 5 min.
Conditions were duplex (1 μM), Rh (1 μM) in 20 mM NaCl, 10 mM NaPi, pH 7.1 for 30 min at ambient temperature followed by irradiation for 5 min with a solar simulator (325-450 nm). Lanes 1, 2, 11, and 12 show Maxam-Gilbert sequencing reactions for matched (1, 2) and mismatched (11, 12) DNA. For matched and mismatched DNA, respectively, lanes 3 and 7 show fragments irradiated with no metal complex; lanes 4 and 8 show fragments with compound A but no irradiation; lanes 5, 6, 9, and 10 show fragments after irradiation in the presence of compound A (5, 9) and intermediate 2 (6, 10). The DNA sequence was 5′-32P-end-labeled-GCGCCGTCGTXCATGTG-3′ (SEQ ID NO:4) where X=C, G with a complement containing a matched or mismatched C at the bold site. The arrow marks the mismatched site.

[Rh(chrysi)(phen)(^PEGbipy)]^3+ [intermediate 2]
photocleavage on autoradiogram of denaturing 20% polyacrylamide gel: photocleavage
